Data: patent US20260365670A1, “EGFR INHIBITORS AND USES THEREOF” (DIZAL (JIANGSU) PHARMACEUTICAL CO., LTD., priority 2022, published 2026)
Where two headings read alike, the source gives them in different places.

Tests used:
EGFR wild type = biological target: T1, EGFR wild type (Homo sapiens, UniProt P00533); test: Inhibition of EGFR wild type biochemical enzymatic activity (HTRF); details: EGFR wild type, 1 mM ATP, 1 h at room temperature
T1 construct: purchased Carna Bio
Summary of the method: (§1)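 Recombinant kinases phosphorylated 1 μM biotinylated TK substrate with 1 mM ATP in buffer with 5 mM MgCl2, 1 mM MnCl2, 0.01% CHAPS, 1 mM DTT, 0.5% DMSO. Reaction ran 1 h at room temperature, stopped with EDTA-containing detection mix. HTRF 665/615 nm ratio gave IC50 via four-parameter logistic fit.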

EGFR L858R = biological target: T2, EGFR L858R (Homo sapiens, UniProt P00533, L858R); test: Inhibition of EGFR L858R biochemical enzymatic activity (HTRF); details: 1 mM ATP, 1 h at room temperature
T2 construct: purchased Carna Bio
Summary of the method: as §1

EGFR L858R/T790M = biological target: T3, EGFR L858R/T790M (Homo sapiens, UniProt P00533, L858R/T790M); test: Inhibition of EGFR L858R/T790M biochemical enzymatic activity (HTRF); details: EGFR L858R/T790M, 1 mM ATP, 1 h at room temperature
T3 construct: purchased Carna Bio
T3 sequence (P00533 25-1210 T790M/L858R): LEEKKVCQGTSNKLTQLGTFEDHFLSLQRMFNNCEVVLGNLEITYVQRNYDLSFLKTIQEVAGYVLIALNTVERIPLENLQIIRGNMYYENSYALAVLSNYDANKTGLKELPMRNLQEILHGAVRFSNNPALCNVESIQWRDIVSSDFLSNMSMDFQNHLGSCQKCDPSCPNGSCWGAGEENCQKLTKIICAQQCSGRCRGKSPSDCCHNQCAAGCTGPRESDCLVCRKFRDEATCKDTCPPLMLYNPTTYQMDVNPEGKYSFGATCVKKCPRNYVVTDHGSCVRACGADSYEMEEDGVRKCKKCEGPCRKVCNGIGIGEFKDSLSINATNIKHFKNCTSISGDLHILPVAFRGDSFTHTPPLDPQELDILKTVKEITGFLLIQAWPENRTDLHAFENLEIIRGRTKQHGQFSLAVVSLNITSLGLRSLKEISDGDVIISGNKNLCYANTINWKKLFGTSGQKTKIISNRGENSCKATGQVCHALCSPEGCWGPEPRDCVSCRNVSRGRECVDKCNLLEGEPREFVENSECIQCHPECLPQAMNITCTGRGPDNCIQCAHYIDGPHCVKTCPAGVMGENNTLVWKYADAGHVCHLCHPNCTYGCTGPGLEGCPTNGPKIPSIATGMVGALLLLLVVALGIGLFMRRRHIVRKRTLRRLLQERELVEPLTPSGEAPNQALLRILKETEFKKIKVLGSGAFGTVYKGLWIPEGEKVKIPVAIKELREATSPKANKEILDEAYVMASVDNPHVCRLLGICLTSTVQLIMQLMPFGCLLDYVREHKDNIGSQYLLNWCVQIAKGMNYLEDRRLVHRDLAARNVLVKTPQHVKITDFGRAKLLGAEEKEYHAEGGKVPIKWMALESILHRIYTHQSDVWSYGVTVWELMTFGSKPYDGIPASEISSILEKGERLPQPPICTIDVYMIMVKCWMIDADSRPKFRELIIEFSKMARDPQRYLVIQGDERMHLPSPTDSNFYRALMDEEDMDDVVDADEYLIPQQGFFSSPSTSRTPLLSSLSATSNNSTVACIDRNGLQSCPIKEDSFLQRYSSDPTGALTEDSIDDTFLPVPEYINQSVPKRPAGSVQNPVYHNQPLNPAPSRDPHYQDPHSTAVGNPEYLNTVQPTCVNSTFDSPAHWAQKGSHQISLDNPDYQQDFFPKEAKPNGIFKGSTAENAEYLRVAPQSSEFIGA
Summary of the method: as §1

EGFR Exon19Del = biological target: T4, EGFR Exon19Del (Homo sapiens, UniProt P00533, DEL746-750); test: Inhibition of EGFR Exon19Del biochemical enzymatic activity (HTRF); details: 1 mM ATP, 1 h at room temperature
T4 construct: purchased Carna Bio
T4 sequence (P00533 with tags, fused parts or gaps DEL746-750 limits assumed): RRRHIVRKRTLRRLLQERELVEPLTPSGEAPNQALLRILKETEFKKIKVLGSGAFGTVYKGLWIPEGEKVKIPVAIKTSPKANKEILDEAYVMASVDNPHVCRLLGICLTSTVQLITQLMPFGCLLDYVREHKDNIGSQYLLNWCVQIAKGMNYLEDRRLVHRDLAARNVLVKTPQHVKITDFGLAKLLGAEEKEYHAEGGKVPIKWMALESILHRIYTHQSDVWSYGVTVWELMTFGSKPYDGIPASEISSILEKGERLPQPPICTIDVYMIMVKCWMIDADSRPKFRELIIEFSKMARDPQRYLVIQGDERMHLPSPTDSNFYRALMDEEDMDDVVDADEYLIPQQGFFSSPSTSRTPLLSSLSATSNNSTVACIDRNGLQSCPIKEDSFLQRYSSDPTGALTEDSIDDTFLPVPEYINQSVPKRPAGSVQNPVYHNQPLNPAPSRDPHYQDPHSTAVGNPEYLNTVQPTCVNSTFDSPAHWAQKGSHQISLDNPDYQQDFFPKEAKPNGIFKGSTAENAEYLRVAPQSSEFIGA
Summary of the method: as §1

EGFR Exon19Del/T790M = biological target: T5, EGFR Exon19Del/T790M (Homo sapiens, UniProt P00533, DEL746-750/T790M); test: Inhibition of EGFR Exon19Del/T790M biochemical enzymatic activity (HTRF); details: EGFR Exon19Del/T790M, 1 mM ATP, 1 h at room temperature
T5 construct: purchased Carna Bio
T5 sequence (P00533 with tags, fused parts or gaps DEL746-750/T790M limits assumed): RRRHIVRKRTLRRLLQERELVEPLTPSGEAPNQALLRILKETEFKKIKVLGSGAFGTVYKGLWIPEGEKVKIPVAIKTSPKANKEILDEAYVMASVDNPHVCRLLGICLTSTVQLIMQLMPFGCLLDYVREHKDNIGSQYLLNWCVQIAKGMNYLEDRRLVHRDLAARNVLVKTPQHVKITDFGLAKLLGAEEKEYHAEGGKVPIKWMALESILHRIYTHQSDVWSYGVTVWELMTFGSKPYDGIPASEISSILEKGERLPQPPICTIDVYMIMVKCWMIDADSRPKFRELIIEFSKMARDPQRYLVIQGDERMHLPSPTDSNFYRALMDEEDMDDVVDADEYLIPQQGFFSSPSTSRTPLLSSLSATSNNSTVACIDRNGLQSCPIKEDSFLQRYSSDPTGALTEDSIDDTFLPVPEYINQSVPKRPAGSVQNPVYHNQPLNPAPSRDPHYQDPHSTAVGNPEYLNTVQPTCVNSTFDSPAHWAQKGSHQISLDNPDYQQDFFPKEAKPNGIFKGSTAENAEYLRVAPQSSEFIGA
Summary of the method: as §1

EGFR[T790M/C797S/L858R] = biological target: T6, EGFR[T790M/C797S/L858R] (Homo sapiens, UniProt P00533, C797S/L858R/T790M); test: Inhibition of EGFR[T790M/C797S/L858R] biochemical enzymatic activity (HTRF); details: EGFR[T790M/C797S/L858R], 1 mM ATP, 1 h at room temperature
T6 construct: purchased Carna Bio
T6 sequence (P00533 25-1210 T790M/C797S/L858R): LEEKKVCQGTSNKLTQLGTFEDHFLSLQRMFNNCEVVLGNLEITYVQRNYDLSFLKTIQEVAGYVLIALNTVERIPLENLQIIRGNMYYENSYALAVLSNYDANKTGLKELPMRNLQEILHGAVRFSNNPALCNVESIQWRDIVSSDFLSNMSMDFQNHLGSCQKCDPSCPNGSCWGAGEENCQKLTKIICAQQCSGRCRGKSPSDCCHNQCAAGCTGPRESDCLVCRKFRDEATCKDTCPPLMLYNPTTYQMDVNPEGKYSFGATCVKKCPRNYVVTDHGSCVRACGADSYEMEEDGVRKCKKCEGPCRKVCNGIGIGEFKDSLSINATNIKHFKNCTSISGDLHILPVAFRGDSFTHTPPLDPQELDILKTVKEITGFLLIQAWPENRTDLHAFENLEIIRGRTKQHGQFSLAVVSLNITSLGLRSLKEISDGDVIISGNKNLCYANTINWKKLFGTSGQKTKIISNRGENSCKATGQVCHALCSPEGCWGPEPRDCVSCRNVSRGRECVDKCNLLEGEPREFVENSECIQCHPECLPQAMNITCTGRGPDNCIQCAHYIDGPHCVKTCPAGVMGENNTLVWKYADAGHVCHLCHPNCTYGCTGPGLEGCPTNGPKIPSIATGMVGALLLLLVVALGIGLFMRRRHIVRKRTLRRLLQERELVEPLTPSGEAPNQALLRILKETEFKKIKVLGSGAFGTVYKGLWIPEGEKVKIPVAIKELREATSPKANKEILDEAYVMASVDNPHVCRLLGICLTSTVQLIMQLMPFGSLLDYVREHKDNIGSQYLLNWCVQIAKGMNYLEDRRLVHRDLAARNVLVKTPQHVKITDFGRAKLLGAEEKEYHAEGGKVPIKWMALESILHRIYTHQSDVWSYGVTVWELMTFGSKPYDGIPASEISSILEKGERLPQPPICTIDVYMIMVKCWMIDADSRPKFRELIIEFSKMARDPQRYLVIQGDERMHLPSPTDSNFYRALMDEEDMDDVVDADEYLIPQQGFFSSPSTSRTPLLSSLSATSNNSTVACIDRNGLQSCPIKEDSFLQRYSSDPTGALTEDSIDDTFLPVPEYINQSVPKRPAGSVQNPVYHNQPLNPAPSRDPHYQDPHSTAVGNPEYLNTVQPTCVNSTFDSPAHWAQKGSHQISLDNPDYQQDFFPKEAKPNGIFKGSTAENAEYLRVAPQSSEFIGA
Summary of the method: as §1

[1] = biological target: T7, EGFR[T790M/C797S/d746-750] (Homo sapiens, UniProt P00533, C797S/DEL746-750/T790M); test: Inhibition of EGFR[T790M/C797S/d746-750] biochemical enzymatic activity (HTRF); details: 1 mM ATP, 1 h at room temperature
T7 construct: purchased Carna Bio
T7 sequence (P00533 with tags, fused parts or gaps DEL746-750/T790M/C797S limits assumed): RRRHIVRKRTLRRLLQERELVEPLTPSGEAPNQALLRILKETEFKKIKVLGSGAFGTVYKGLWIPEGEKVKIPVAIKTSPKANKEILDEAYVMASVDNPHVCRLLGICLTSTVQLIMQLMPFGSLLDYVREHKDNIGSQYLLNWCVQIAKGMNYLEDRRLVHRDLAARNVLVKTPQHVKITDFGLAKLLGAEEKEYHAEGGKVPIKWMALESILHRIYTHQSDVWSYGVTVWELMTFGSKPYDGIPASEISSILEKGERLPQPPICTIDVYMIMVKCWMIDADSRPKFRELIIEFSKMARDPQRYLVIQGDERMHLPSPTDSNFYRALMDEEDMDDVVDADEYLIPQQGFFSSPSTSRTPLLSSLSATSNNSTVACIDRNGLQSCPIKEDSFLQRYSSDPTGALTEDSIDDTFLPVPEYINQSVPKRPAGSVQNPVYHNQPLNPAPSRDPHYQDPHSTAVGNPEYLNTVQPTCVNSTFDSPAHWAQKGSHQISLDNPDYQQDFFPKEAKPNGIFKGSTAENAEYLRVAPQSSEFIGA
Summary of the method: as §1

EGFR (d746-750 C797S) = biological target: T8, EGFR (d746-750 C797S) (Homo sapiens, UniProt P00533, C797S/DEL746-750); test: Inhibition of EGFR (d746-750 C797S) biochemical enzymatic activity (HTRF); details: EGFR (d746-750 C797S), 1 mM ATP, 1 h at room temperature
T8 construct: purchased signalchem
T8 sequence (P00533 with tags, fused parts or gaps DEL746-750/C797S limits assumed): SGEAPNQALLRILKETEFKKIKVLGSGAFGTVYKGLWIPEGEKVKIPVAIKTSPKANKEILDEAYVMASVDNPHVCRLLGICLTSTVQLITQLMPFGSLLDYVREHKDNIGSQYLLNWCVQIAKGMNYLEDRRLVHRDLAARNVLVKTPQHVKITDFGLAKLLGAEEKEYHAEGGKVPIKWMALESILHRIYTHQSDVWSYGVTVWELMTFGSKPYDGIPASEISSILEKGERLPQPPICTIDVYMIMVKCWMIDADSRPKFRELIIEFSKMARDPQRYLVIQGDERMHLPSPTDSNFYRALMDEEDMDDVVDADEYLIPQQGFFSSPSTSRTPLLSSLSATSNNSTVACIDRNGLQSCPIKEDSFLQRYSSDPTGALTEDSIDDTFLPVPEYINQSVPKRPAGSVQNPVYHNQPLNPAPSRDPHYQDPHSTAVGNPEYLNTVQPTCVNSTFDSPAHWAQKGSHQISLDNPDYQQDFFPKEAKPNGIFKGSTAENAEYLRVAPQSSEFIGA
Summary of the method: as §1

EGFR (C797S L858R) = biological target: T9, EGFR (C797S L858R) (Homo sapiens, UniProt P00533, C797S/L858R); test: Inhibition of EGFR (C797S L858R) biochemical enzymatic activity (HTRF); details: EGFR (C797S L858R), 1 mM ATP, 1 h at room temperature
T9 construct: purchased signalchem
Summary of the method: as §1

[2] = test system: Ba/F3 cells expressing EGFR mutations; test: Cell proliferation assay, Ba/F3 cells expressing EGFR mutations (CellTiter-Glo, 72 hours); type: cell-based; details: Mus musculus, BaF3, 72 h
Summary of the method: (§2)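 Ba/F3 cells (5000/well) and PC-9 cells (500/well, RPMI1640 with 10% FBS) were plated overnight and then dosed with a compound concentration series. Viable cells were read at day 0 (G0) and after treatment (G3). GI50 came from curve fits of G0-corrected proliferation relative to DMSO.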

PC-9 = test: Cell proliferation assay, PC-9 cells (CellTiter-Glo, 72 hours); type: cell-based; details: Homo sapiens, PC-9, 72 h, PC9 cells, read-out: GI50 PC9
Summary of the method: as §2

A-431 = test: Cell proliferation assay, A-431 cells (GI50, Table 6); type: cell-based; details: Homo sapiens, A-431, A-431 cells
[3] = EGFR Exon19Del, read-out: IC50 @Del19
[4] = read-out: IC50 @T790M- C797S - L858R
[5] = EGFR[T790M/C797S/d746-750], read-out: IC50 @T790M - C797S - Del19
[6] = BaF3 cells, EGFR DEL19 - C797S, read-out: GI50 DEL19 - C797S/BaF3
[7] = BaF3 cells, EGFR DEL19 - T790-C797S, read-out: GI50 DEL19 - T790-C797S/BaF3
[8] = BaF3 cells, EGFR L858R - C797S, read-out: GI50 L858R - C797S/BaF3
[9] = BaF3 cells, EGFR L858R - T790-C797S, read-out: GI50 L858R - T790-C797S/BaF3
[10] = BaF3 cells, EGFR L858R - T790M, read-out: GI50 L858R - T790M/BaF3
[11] = BaF3 cells, EGFR L858R, read-out: GI50 L858R/BaF3
[12] = EGFR DEL19 - T790M, read-out: GI50 DEL19 - T790M

Structure (SMILES)	IC50 (EGFR wild type; read-out: IC50 @WT) [nM]	IC50 (EGFR L858R; read-out: IC50 @L858R) [nM]	IC50 (EGFR L858R/T790M; read-out: IC50 @L858R-T790M) [nM]	IC50 (EGFR Exon19Del; [3]) [nM]	IC50 (EGFR Exon19Del/T790M; read-out: IC50 @Del19-T790M) [nM]	IC50 (EGFR[T790M/C797S/L858R]; [4]) [nM]	IC50 [1, 5] [nM]	IC50 (EGFR (d746-750 C797S); read-out: IC50 @Del19-C797S) [nM]	IC50 (EGFR (C797S L858R); read-out: IC50 @L858-C797S) [nM]	GI50 [2, 6] [nM]	GI50 [2, 7] [nM]	GI50 [2, 8] [nM]	GI50 [2, 9] [nM]	GI50 [2, 10] [nM]	GI50 [2, 11] [nM]	GI50 [2, 12] [nM]	GI50 (PC-9) [nM]	GI50 (A-431) [nM]	further results
Cc1cc2cc(n1)-c1cnn(C)c1OCCCCCn1c(nc3ccc4c(c31)CCN(C1COC1)C4)NC2=O [Example B17, 5,30-Dimethyl-18-(oxetan-3-yl)-7-oxa-4,5,13,18,24,26,31-heptaazahexacyclo[26.3.1.0^{2,6}.0^{13,25}.0^{14,23}.0^{15,20}]dotriaconta-1(31),2(6),3,14,20,22,24,28(32),29-nonaen-27-one]	> 5000	> 5000	> 5000	> 5000	128	4160	51	2110	> 5000	26	10	82	6	21	114	8.7	71	1090	–
Cc1cc2cc(n1)-c1cnn(C)c1OCCN1CC3CCC(CC3)(C1)n1c(nc3ccc(N4CCC(N(C)C)CC4)cc31)NC2=O [Example B27, 5-[4-(dimethylamino)piperidin-1-yl]-15,21-dimethyl-23-oxa-2,9,11,16,20,21,26-heptaazaheptacyclo[26.2.2.1^{1,26}.1^{13,17}.0^{2,10}.0^{3,8}.0^{18,22}]tetratriaconta-3,5,7,9,13,15,17(34),18(22),19-nonaen-12-one]	–	–	–	–	–	–	–	–	–	2	2	22	2	5	17	2	19	3600	IC50 (EGFR wild type; IC50 @WT): 3540 nM; IC50 (EGFR L858R; IC50 @L858R): 67 nM; IC50 (EGFR L858R/T790M; IC50 @L858R-T790M): 8.3 nM; IC50 (EGFR Exon19Del; IC50 @Del19, EGFR Exon19Del): 11 nM; IC50 (EGFR Exon19Del/T790M; IC50 @Del19-T790M): 8.3 nM; IC50 (EGFR[T790M/C797S/L858R]; IC50 @T790M- C797S - L858R): 3.8 nM; IC50 ([1]; IC50 @T790M - C797S - Del19, EGFR[T790M/C797S/d746-750]): 3.1 nM; IC50 (EGFR (d746-750 C797S); IC50 @Del19-C797S): 6.3 nM; IC50 (EGFR (C797S L858R); IC50 @L858-C797S): 30 nM
Cc1cc2cc(n1)-c1cnn(C)c1OCCN1CC3CCC(CC3)(C1)n1c(nc3ccc(N4CC[C@H](N(C)C)C4)cc31)NC2=O [Example B28]	> 5000	320	17	23	9.5	5.9	7.8	14	145	17	5	116	11	34	85	5	98	7810	–
Cc1cc2cc(n1)-c1cnn(C)c1OCCN1CC3CCC(CC3)(C1)n1c(nc3ccc(N4CCC5(CC4)CCN5C)cc31)NC2=O [Example B30]	> 5000	110	11	17	12	5.6	4.9	8.7	64	3	2	35	4	9	22	2	33	3560	–
Cc1cc2cc(n1)-c1cnn(C)c1OCCN1CC3CCC(CC3)(C1)n1c(nc3ccc(N(C)CCN(C)C)cc31)NC2=O [Example B32]	> 5000	197	11	17	6.6	3.9	2.3	13	117	11	3	78	7	20	64	4	81	7410	–
Cc1cc2cc(n1)-c1cnn(C)c1OCCN1CC3CCC(CC3)(C1)n1c(nc3ccc(N(C)CCCN(C)C)cc31)NC2=O [Example B33]	> 5000	214	20	28	9.9	6.2	3	22	131	10	3	69	7	13	62	4	75	3740	–
